Assay results published in PMC5949348, “The Metabolism of Separase Inhibitor Sepin-1 in Human, Mouse, and Rat Liver Microsomes” (Frontiers in Pharmacology, 2018).
Several values for one entry are separate records, joined by “and”; a condition that tells them apart may be missing. Equal values may be shown once. Read-outs that look alike come from different tables or passages of the source.

What was measured:
Format in all cases: in vitro ADME
[1] = Metabolism of sepin-1 in human liver microsomes; conditions: 30 μM sepin-1, NADPH 1.0 mM, 30 min
Procedure: Incubations were conducted in 1× phosphate-buffered saline (1× PBS, pH 7.4), containing 30 μM sepin-1, 1.0 mg HLM, MLM, RLM, or 2 pmol of each cDNA-expressed P450 enzyme (control, CYP1A2, 2A6, 2B6, 2C8, 2C9, 2C19, 2D6, 2E1, and CYP3A4) in a final volume of 190 μl. After 5 min of pre-incubation at 37°C, the reaction was initiated by adding 10 μl of 20 mM NADPH (final concentration 1.0 mM) and continued for 30 min, with shaking at 37°C. Incubations lacking NADPH served as controls. Reactions were terminated with 200 μl of ice-cold methanol, followed by vortexing for 30 s and centrifuging at 15,000 × g for 15 min. Each supernatant was transferred to an auto sampler vial, and 5.0 μl was injected on to UHPLC coupled with a QTOFMS system for metabolite analysis. Incubations were conducted in quadruplicate for HLM, in triplicate for MLM and RLM, and in duplicate for cDNA-expressed P450 enzymes.
The separation of sepin-1 and its metabolites was achieved using a 1260 Infinity Binary LC System (Agilent Technologies, Santa Clara, CA, United States) equipped with 100 mm × 2.1 mm (Agilent XDB C18) column. The column temperature was maintained at 40°C. The flow rate was 0.3 ml/min, with a gradient ranging from 2% to 98% aqueous acetonitrile containing 0.1% formic acid in a 15-min run. QTOFMS was operated in a positive mode with electrospray ionization. Ultra-high pure nitrogen was applied as the drying gas (12 l/min) and the collision gas. The drying gas temperature was set at 325°C, and the nebulizer pressure was kept at 35 psi. The capillary voltages were set at 3.5 kV. […]
Mass chromatograms and mass spectra were acquired by MassHunter Workstation Data Acquisition Software (Agilent, Santa Clara, CA, United States) in centroid and profile formats from m/z 100 to 1000. […] For the QQQMS data, QQQ Quantitative Analysis Software (Agilent, Santa Clara, CA, United States) was used for metabolite analysis. […] Statistical differences between two groups were determined by Student’s t-test.

CYP2B6 = target: T1, CYP2B6 (Homo sapiens, UniProt P20813); experiment: Inhibition of sepin-1 on CYP2B6
T1 construct: purchased XenoTech
T1 sequence (P20813 1-491): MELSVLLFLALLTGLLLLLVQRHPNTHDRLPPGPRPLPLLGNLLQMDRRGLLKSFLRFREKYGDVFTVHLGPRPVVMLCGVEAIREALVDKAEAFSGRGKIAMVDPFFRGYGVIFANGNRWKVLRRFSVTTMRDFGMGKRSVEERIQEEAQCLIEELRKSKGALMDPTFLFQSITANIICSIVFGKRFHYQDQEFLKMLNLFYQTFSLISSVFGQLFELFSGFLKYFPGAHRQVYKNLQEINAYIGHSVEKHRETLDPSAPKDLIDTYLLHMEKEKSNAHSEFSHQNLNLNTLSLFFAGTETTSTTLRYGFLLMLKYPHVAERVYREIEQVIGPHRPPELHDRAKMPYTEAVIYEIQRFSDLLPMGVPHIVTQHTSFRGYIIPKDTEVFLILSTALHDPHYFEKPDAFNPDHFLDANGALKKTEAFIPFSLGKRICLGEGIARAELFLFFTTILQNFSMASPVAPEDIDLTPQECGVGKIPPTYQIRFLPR
Procedure: (§1) Incubations were performed in 1× PBS (pH 7.4), containing 0, 0.156, 0.312, 0.625, 1.25, 2.5, 5, 10, 20, or 40 μM sepin-1, 2 pmol of each cDNA-expressed P450 enzymes, and corresponding substrates: CYP1A2 (phenacetin, 40 μM, 20 min incubation), 2B6 (efavirenz, 20 μM, 30 min), 2C8 (paclitaxel, 10 μM, 30 min), 2C9 (diclofenac, 5 μM, 15 min), 2C19 [(S)-mephenytoin, 40 μM, 20 min], 2D6 (dextromethorphan, 5 μM, 15 min), and CYP3A4 (midazolam, 3 μM, 10 min) in a final volume of 190 μl. After 5 min of pre-incubation at 37°C, the reaction was initiated by adding 10 μl of 20 mM NADPH (final concentration 1.0 mM) and continued for a specific time as presented above with gentle shaking. Incubations without sepin-1 were used as controls. Reactions were terminated by the addition of 200 μl of ice-cold methanol, vortexing for 30 s, and centrifuging at 15,000 × g for 15 min. Each supernatant was transferred to an auto sampler vial and 5.0 μl was injected on to UHPLC coupled with a QQQMS system for the specific metabolite analysis. A MRM method was used. Incubations were conducted in duplicate. Positive controls were performed by using a known specific inhibitor for each of the isoform assays (Supplementary Table S1). […]

CYP2C19 = target: T2, CYP2C19 (Homo sapiens, UniProt P33261); experiment: Inhibition of sepin-1 on CYP2C19
T2 construct: purchased XenoTech
T2 sequence (P33261 whole entry): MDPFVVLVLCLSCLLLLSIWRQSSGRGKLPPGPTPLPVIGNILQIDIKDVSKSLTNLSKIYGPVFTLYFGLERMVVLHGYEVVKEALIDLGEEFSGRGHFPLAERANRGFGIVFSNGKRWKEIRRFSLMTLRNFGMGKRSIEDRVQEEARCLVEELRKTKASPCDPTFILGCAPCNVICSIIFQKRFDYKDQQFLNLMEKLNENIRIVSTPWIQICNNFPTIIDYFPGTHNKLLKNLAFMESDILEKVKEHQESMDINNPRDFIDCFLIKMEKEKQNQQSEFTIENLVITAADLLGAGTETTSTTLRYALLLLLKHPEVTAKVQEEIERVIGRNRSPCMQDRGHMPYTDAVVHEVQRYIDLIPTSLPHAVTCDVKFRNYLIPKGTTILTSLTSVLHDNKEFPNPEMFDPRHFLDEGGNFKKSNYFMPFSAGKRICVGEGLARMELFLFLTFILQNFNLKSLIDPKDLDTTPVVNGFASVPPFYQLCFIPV
Procedure: as §1

CC1(C)[N+]([O-])=c2ccc([N+](=O)[O-])cc2=[N+]1[O-] [Sepin-1, 2,2-dimethyl-5-nitro-2H-benzimidazole-1,3-dioxide]
Metabolism of parent in HLM (in words) [1]: metabolized rapidly | Inhibition potency class on CYP2B6 (CYP2B6; FDA classification bands): weak inhibition | IC50 (CYP2B6; substrate efavirenz 20 μM, 30 min, metabolite 8-O-efavirenz, co-incubation): > 10 µM and 14.5 µM | IC50 (CYP2C19; FDA classification bands, read-out: Inhibition potency class on CYP2C19): 1 to 10 µM | IC50 (CYP2C19; substrate (S)-mephenytoin 40 μM, 20 min, metabolite 4-O-mephenytoin, co-incubation, read-out: IC50 on CYP2C19): < 10 µM and 8.9 µM
